In patent publication US9539252B2, “Piperazine-substituted benzothiophene derivatives as antipsychotic agents” (OTSUKA PHARMACEUTICAL CO., LTD., priority 2011, dated 2017) one finds solubility data, which are given here for 30 compounds.

The nature of the first data set: Solubility in oil (sesame oil, benzyl benzoate), visual observation. Conditions: benzyl benzoate, oil or lipid, thermodynamic from solid.
Experimental: Each of the Example compounds was examined for the solubility in oil (sesame oil, benzyl benzoate).
For the specific gravity of an oil, the following values were applied. • sesame oil (specific gravity: 0.914-0.921) • benzyl benzoate (specific gravity: 1.123) • (Method)
Example compound is measured in a microtube and an oil (sesame oil, or, benzyl benzoate) in an amount to make the concentration 10 mg/0.1 ml is added. After stirring, the solubility is evaluated by visual observation. When the compound is not dissolved, the mixture is heated, and the solubility is evaluated after cooling.
Broadly, the solubility is how much of the substance goes into solution per volume. High values mean a readily soluble substance, low ones a poorly soluble substance. Regarding `CCCCCCCCCCCCCCCCCCCC(=O)OCn1c(=O)ccc2ccc(OCCCCN3CCN(c4cccc5sccc45)CC3)cc21` [Example 41, icosanoic acid 7-[4-(4-benzo[b]thiophen-4-ylpiperazin-1-yl)butoxy]-2-oxo-2H-quinolin-1-ylmethyl ester], the solubility was > 100 mg/mL.
`CCCCCCCCCCCCCCCC(=O)OCn1c(=O)ccc2ccc(OCCCCN3CCN(c4cccc5sccc45)CC3)cc21` [Example 42, hexadecanoic acid 7-[4-(4-benzo[b]thiophen-4-ylpiperazin-1-yl)butoxy]-2-oxo-2H-quinolin-1-ylmethyl ester]: the solubility is > 100 mg/mL.
On the same count and under the same terms, to `CCCCCCCCCCCCCCCNC(=O)OCn1c(=O)ccc2ccc(OCCCCN3CCN(c4cccc5sccc45)CC3)cc21` [Example 43, N-pentadecylcarbamic acid 7-[4-(4-benzo[b]thiophen-4-ylpiperazin-1-yl)butoxy]-2-oxo-2H-quinolin-1-ylmethyl ester] belongs > 100 mg/mL.
Still for that read-out and setting: the same measure for `CCCCCCCCCCCCCCCCCCN(C)C(=O)OCn1c(=O)ccc2ccc(OCCCCN3CCN(c4cccc5sccc45)CC3)cc21` [Example 44, N-methyl-N-octadecylcarbamic acid 7-[4-(4-benzo[b]thiophen-4-ylpiperazin-1-yl)butoxy]-2-oxo-2H-quinolin-1-ylmethyl ester]: > 100 mg/mL; for `CCCCN(CCCC)C(=O)OCn1c(=O)ccc2ccc(OCCCCN3CCN(c4cccc5sccc45)CC3)cc21` [Example 45, N,N-dibutylcarbamic acid 7-[4-(4-benzo[b]thiophen-4-ylpiperazin-1-yl)butoxy]-2-oxo-2H-quinolin-1-ylmethyl ester]: > 100 mg/mL; for `CNC(=O)OCN1C(=O)CCc2ccc(OCCCCN3CCN(c4cccc5sccc45)CC3)cc21` [Example 46, N-methylcarbamic acid 7-[4-(4-benzo[b]thiophen-4-ylpiperazin-1-yl)butoxy]-2-oxo-3,4-dihydro-2H-quinolin-1-ylmethyl ester]: > 100 mg/mL.
As for `CN(C)C(=O)OCN1C(=O)CCc2ccc(OCCCCN3CCN(c4cccc5sccc45)CC3)cc21` [Example 47, N,N-dimethylcarbamic acid 7-[4-(4-benzo[b]thiophen-4-ylpiperazin-1-yl)butoxy]-2-oxo-3,4-dihydro-2H-quinolin-1-ylmethyl ester], the solubility is > 100 mg/mL.
For `CCCCCCCCCCCCCCCCCC(=O)OCN1C(=O)CCc2ccc(OCCCCN3CCN(c4cccc5sccc45)CC3)cc21` [Example 48, octadecanoic acid 7-[4-(4-benzo[b]thiophen-4-ylpiperazin-1-yl)butoxy]-2-oxo-3,4-dihydro-2H-quinolin-1-ylmethyl ester], the solubility is > 100 mg/mL.
Still for that read-out and setting: to `CCOC(=O)OCN1C(=O)CCc2ccc(OCCCCN3CCN(c4cccc5sccc45)CC3)cc21` [Example 49, carbonic acid 7-[4-(4-benzo[b]thiophen-4-ylpiperazin-1-yl)butoxy]-2-oxo-3,4-dihydro-2H-quinolin-1-ylmethyl ester ethyl ester] belongs > 100 mg/mL; to `CCOC(=O)OCn1c(=O)ccc2ccc(OCCCCN3CCN(c4cccc5sccc45)CC3)cc21` [Example 50, carbonic acid 7-[4-(4-benzo[b]thiophen-4-ylpiperazin-1-yl)butoxy]-2-oxo-2H-quinolin-1-ylmethyl ester ethyl ester], > 100 mg/mL; to `CCNC(=O)OCN1C(=O)CCc2ccc(OCCCCN3CCN(c4cccc5sccc45)CC3)cc21` [Example 51, N-ethylcarbamic acid 7-[4-(4-benzo[b]thiophen-4-ylpiperazin-1-yl)butoxy]-2-oxo-3,4-dihydro-2H-quinolin-1-ylmethyl ester], > 100 mg/mL.
On the same count and under the same terms, the same measure for `CCN(CC)C(=O)OCN1C(=O)CCc2ccc(OCCCCN3CCN(c4cccc5sccc45)CC3)cc21` [Example 52, N,N-diethylcarbamic acid 7-[4-(4-benzo[b]thiophen-4-ylpiperazin-1-yl)butoxy]-2-oxo-3,4-dihydro-2H-quinolin-1-ylmethyl ester]: > 100 mg/mL; for `CNC(=O)OCn1c(=O)ccc2ccc(OCCCCN3CCN(c4cccc5sccc45)CC3)cc21` [Example 53, N-methylcarbamic acid 7-[4-(4-benzo[b]thiophen-4-ylpiperazin-1-yl)butoxy]-2-oxo-2H-quinolin-1-ylmethyl ester]: > 100 mg/mL.
The same measure, in the same setting: the same measure for `CCCCCC(CCCCC)C(=O)OCn1c(=O)ccc2ccc(OCCCCN3CCN(c4cccc5sccc45)CC3)cc21` [Example 54, 2-pentylheptanoic acid 7-[4-(4-benzo[b]thiophen-4-ylpiperazin-1-yl)butoxy]-2-oxo-2H-quinolin-1-ylmethyl ester]: > 100 mg/mL.
Take `CCNC(=O)OCn1c(=O)ccc2ccc(OCCCCN3CCN(c4cccc5sccc45)CC3)cc21` [Example 55, N-ethylcarbamic acid 7-[4-(4-benzo[b]thiophen-4-ylpiperazin-1-yl)butoxy]-2-oxo-2H-quinolin-1-ylmethyl ester]: the solubility was > 100 mg/mL.
Same read-out and setting: to `CN(C)C(=O)OCn1c(=O)ccc2ccc(OCCCCN3CCN(c4cccc5sccc45)CC3)cc21` [Example 56, N,N-dimethylcarbamic acid 7-[4-(4-benzo[b]thiophen-4-ylpiperazin-1-yl)butoxy]-2-oxo-2H-quinolin-1-ylmethyl ester] belongs > 100 mg/mL; to `CCN(CC)C(=O)OCn1c(=O)ccc2ccc(OCCCCN3CCN(c4cccc5sccc45)CC3)cc21` [Example 57, N,N-diethylcarbamic acid 7-[4-(4-benzo[b]thiophen-4-ylpiperazin-1-yl)butoxy]-2-oxo-2H-quinolin-1-ylmethyl ester], > 100 mg/mL.
In the case of `CCCCCC(=O)OCn1c(=O)ccc2ccc(OCCCCN3CCN(c4cccc5sccc45)CC3)cc21` [Example 58, hexanoic acid 7-[4-(4-benzo[b]thiophen-4-ylpiperazin-1-yl)butoxy]-2-oxo-2H-quinolin-1-ylmethyl ester], the solubility was > 100 mg/mL.
Turning to `CCCCCCCCCC(=O)OCn1c(=O)ccc2ccc(OCCCCN3CCN(c4cccc5sccc45)CC3)cc21` [Example 59, decanoic acid 7-[4-(4-benzo[b]thiophen-4-ylpiperazin-1-yl)butoxy]-2-oxo-2H-quinolin-1-ylmethyl ester], the solubility is > 100 mg/mL.
Still for that read-out and setting: to `CCCCCCCCCCCCCCCCCC(=O)OCn1c(=O)ccc2ccc(OCCCCN3CCN(c4cccc5sccc45)CC3)cc21` [Example 60, octadecanoic acid 7-[4-(4-benzo[b]thiophen-4-ylpiperazin-1-yl)butoxy]-2-oxo-2H-quinolin-1-ylmethyl ester] belongs > 100 mg/mL; to `CC(=O)OCn1c(=O)ccc2ccc(OCCCCN3CCN(c4cccc5sccc45)CC3)cc21` [Example 61, acetic acid 7-[4-(4-benzo[b]thiophen-4-ylpiperazin-1-yl)butoxy]-2-oxo-2H-quinolin-1-ylmethyl ester], > 100 mg/mL; to `O=C(NCc1ccccc1)OCn1c(=O)ccc2ccc(OCCCCN3CCN(c4cccc5sccc45)CC3)cc21` [Example 62, N-benzylcarbamic acid 7-[4-(4-benzo[b]thiophen-4-ylpiperazin-1-yl)butoxy]-2-oxo-2H-quinolin-1-ylmethyl ester], > 100 mg/mL.
On the same count and under the same terms, the same measure for `O=C(NCC1CCCCC1)OCn1c(=O)ccc2ccc(OCCCCN3CCN(c4cccc5sccc45)CC3)cc21` [Example 63, N-cyclohexylmethylcarbamic acid 7-[4-(4-benzo[b]thiophen-4-ylpiperazin-1-yl)butoxy]-2-oxo-2H-quinolin-1-ylmethyl ester]: > 100 mg/mL; for `COC(=O)CNC(=O)OCn1c(=O)ccc2ccc(OCCCCN3CCN(c4cccc5sccc45)CC3)cc21` [Example 64, {7-[4-(4-benzo[b]thiophen-4-ylpiperazin-1-yl)butoxy]-2-oxo-2H-quinolin-1-ylmethoxycarbonylamino}acetic acid methyl ester]: > 100 mg/mL; for `CCCCCCCCCCCCCC(=O)OCn1c(=O)ccc2ccc(OCCCCN3CCN(c4cccc5sccc45)CC3)cc21` [Example 65, tetradecanoic acid 7-[4-(4-benzo[b]thiophen-4-ylpiperazin-1-yl)butoxy]-2-oxo-2H-quinolin-1-ylmethyl ester]: > 100 mg/mL.
Regarding `O=C(OCn1c(=O)ccc2ccc(OCCCCN3CCN(c4cccc5sccc45)CC3)cc21)N1CCOCC1` [Example 67, morpholine-4-carboxylic acid 7-[4-(4-benzo[b]thiophen-4-ylpiperazin-1-yl)butoxy]-2-oxo-2H-quinolin-1-ylmethyl ester], the solubility is > 100 mg/mL.
Still for that read-out and setting: the same measure for `CCCCCCCCCC(=O)OCN1C(=O)CCc2ccc(OCCCCN3CCN(c4cccc5sccc45)CC3)cc21` [Example 68, decanoic acid 7-[4-(4-benzo[b]thiophen-4-ylpiperazin-1-yl)butoxy]-2-oxo-3,4-dihydro-2H-quinolin-1-ylmethyl ester]: > 100 mg/mL.
On the same count and under the same terms, the same measure for `O=C(NOCc1ccccc1)OCn1c(=O)ccc2ccc(OCCCCN3CCN(c4cccc5sccc45)CC3)cc21` [Example 69, 7-[4-(4-benzo[b]thiophen-4-ylpiperazin-1-yl)butoxy]-2-oxo-2H-quinolin-1-ylmethyl benzyloxycarbamate]: > 100 mg/mL; for `CCCCCC(=O)OCN1C(=O)CCc2ccc(OCCCCN3CCN(c4cccc5sccc45)CC3)cc21` [Example 70, hexanoic acid 7-[4-(4-benzo[b]thiophen-4-ylpiperazin-1-yl)butoxy]-2-oxo-3,4-dihydro-2H-quinolin-1-ylmethyl ester]: > 100 mg/mL.
The same measure, in the same setting: to `O=C(NC1CCCCC1)OCn1c(=O)ccc2ccc(OCCCCN3CCN(c4cccc5sccc45)CC3)cc21` [Example 71, N-cyclohexylcarbamic acid 7-[4-(4-benzo[b]thiophen-4-ylpiperazin-1-yl)butoxy]-2-oxo-2H-quinolin-1-ylmethyl ester] belongs > 100 mg/mL.

The data set is the same for the next values; noted with them: sesame oil, oil or lipid, thermodynamic from solid.
For `CCCCCCCCCCCCCCCCCCN(C)C(=O)OCn1c(=O)ccc2ccc(OCCCCN3CCN(c4cccc5sccc45)CC3)cc21` [Example 44, N-methyl-N-octadecylcarbamic acid 7-[4-(4-benzo[b]thiophen-4-ylpiperazin-1-yl)butoxy]-2-oxo-2H-quinolin-1-ylmethyl ester], the solubility was > 100 mg/mL.
In the case of `CCCCN(CCCC)C(=O)OCn1c(=O)ccc2ccc(OCCCCN3CCN(c4cccc5sccc45)CC3)cc21` [Example 45, N,N-dibutylcarbamic acid 7-[4-(4-benzo[b]thiophen-4-ylpiperazin-1-yl)butoxy]-2-oxo-2H-quinolin-1-ylmethyl ester], the solubility was > 100 mg/mL.
Same read-out and setting: the same measure for `CCN(CC)C(=O)OCN1C(=O)CCc2ccc(OCCCCN3CCN(c4cccc5sccc45)CC3)cc21` [Example 52, N,N-diethylcarbamic acid 7-[4-(4-benzo[b]thiophen-4-ylpiperazin-1-yl)butoxy]-2-oxo-3,4-dihydro-2H-quinolin-1-ylmethyl ester]: > 100 mg/mL; for `CCN(CC)C(=O)OCn1c(=O)ccc2ccc(OCCCCN3CCN(c4cccc5sccc45)CC3)cc21` [Example 57, N,N-diethylcarbamic acid 7-[4-(4-benzo[b]thiophen-4-ylpiperazin-1-yl)butoxy]-2-oxo-2H-quinolin-1-ylmethyl ester]: > 100 mg/mL; for `CCCCCCCCCCCCCCCCCC(=O)OCn1c(=O)ccc2ccc(OCCCCN3CCN(c4cccc5sccc45)CC3)cc21` [Example 60, octadecanoic acid 7-[4-(4-benzo[b]thiophen-4-ylpiperazin-1-yl)butoxy]-2-oxo-2H-quinolin-1-ylmethyl ester]: > 100 mg/mL.
